Experimental data reported in patent publication US10822333B2, “Pyridopyrimidines derivatives compounds” (BIOLAB SANUS FARMACEUTICA LTDA, priority 2014, dated 2020).
“And” between values parts separate entries of the source, which are not always exact repeats. Equal values may be shown once.

Experiments:
[1] = biological target: T1, Guanylate Cyclase-C (Homo sapiens, UniProt P25092); assay: Stimulation of guanylate cyclase-C induced by the toxin STa in T84 cells (cGMP accumulation); assay type: cell-based; details: for inhibition at 50 µM: T84, test compound 50 μM vs STa (1 μM) group, read-out: % of inhibition (Compound x STa); for cGMP, pmol/10 min/mg: test compound 50 μM, 10 min pre-incubation, then STa 1 μM for 10 min, T84 cells, mean ± SEM
T1 construct: host or cells: T84 cells
T1 sequence (P25092 24-1073): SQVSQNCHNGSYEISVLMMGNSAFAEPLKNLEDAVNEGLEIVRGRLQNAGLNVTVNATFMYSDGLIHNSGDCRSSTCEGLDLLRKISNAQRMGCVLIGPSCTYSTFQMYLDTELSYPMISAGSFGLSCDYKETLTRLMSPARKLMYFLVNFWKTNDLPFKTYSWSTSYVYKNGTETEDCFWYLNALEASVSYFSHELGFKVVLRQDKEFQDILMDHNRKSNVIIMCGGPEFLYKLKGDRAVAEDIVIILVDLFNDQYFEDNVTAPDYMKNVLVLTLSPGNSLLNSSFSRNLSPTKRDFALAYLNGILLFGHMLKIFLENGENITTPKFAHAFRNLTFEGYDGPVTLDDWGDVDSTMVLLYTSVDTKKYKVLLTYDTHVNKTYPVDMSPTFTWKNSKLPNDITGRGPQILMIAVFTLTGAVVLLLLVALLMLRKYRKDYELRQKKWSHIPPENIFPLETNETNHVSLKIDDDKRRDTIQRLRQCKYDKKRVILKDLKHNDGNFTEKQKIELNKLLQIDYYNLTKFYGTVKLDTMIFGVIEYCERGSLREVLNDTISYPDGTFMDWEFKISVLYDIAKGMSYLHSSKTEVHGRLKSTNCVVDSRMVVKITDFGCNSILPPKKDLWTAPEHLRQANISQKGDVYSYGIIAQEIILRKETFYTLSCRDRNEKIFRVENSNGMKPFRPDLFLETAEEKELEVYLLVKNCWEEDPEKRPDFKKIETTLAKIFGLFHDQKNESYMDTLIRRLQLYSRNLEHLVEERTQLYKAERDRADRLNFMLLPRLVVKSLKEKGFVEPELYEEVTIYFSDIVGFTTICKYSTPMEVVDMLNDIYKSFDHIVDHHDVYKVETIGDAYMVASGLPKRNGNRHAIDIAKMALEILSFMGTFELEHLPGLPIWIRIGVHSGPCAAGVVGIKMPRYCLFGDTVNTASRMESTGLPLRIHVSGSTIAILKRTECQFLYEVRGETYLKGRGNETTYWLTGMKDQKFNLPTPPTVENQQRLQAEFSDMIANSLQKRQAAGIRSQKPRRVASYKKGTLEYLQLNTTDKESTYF
Protocol: Protocol for the Stimulation of Guanylate Cyclase-C Induced by the Toxin STa in T84 Cells
Cells from the T84 line (ATCC CCL-248) are subculture according to supplier's instructions. Briefly, after washing the culture flask (75 cm^2) using 3 mL of 0.25% Trypsin solution (w/v) and 0.53 mM EDTA solution to remove the traces of serum, the same volume of trypsin is added to each bottle, and cells are observed under a microscope until detachment of the cellular layer (usually 8-10 minutes).
Preparation of assay plates (12-well plates) follows after adding 8 mL of culture medium (DMEM-F12 supplemented with 10% fetal bovine serum and penicillin-streptomycin (50 IU/mL:50 μg/mL) and centrifugation of the cell homogenate at 2000 rpm for 5 minutes (at 25° C.).
With the aid of a 1 mL pipet connected to a vacuum pump, the supernatant is aspirated and the cells resuspended with culture medium (with necessary volume to maintain the ratio of 1:4, i.e. 1 culture flask originates 4 12-well plates). After homogenization of the cells, with an aid of a pipette, it is added 2 mL of the cell suspension to each well of the plate. The growth occurs in an incubator under controlled conditions (37° C., 5% CO2 atmosphere) until confluence of each well (typically 8-10 days).
Initially, the culture medium is aspirated using a 1 mL pipette connected to a vacuum pump and the cells are washed at least 3 times with 0.5 mL of a Dulbecco Phosphate Buffered Saline (DPBS; 37° C.) using a 1 mL pipette attached to one the vacuum pump. In the sequence, 0.5 mL of DPBS is added in the presence and/or absence of 1-metil-3-isobutyl xanthine (1 mM), dimethylsulfoxide (0.1% v/v) and the test compound and incubated for 10 minutes in an oven (37° C., 5% CO2 atmosphere).
After the incubation period, the cells are stimulated with STa toxin (1 μM, 5 μL) and incubated in an incubator (37° C., 5% CO2 atmosphere) for 10 minutes. After the stimulation period, the volume of the supernatant is aspirated using a 1 mL pipette connected to a vacuum pump and the cGMP is extracted by the addition of a hydrochloric acid solution 0.1 M (0.3 mL, using a pipette), pH 4, under constant stirring (speed 4) in a shaker type “rotator” (Lab-line Instruments, model number 4625), for 20 minutes. After the extraction period, the volume of each well is centrifuged (15000 rpm, 5 minutes, 25° C.) and an aliquot of the supernatant (0.3 mL) is quickly stored in a freezer at −20° C. for the subsequent quantification of the content of cGMP by the immunoassay method developed and described by HORTON et al. (1992) [Horton, J. K.; Martin, R. C.; Kalinka, S.; Cushing, A.; Kitcher, J. P.; O'Sullivan, M. J.; Baxendale, P. M., “Enzime immunoassays for the estimation of adenosine 3′,5′ cyclic monophosphate and guanosine 3′,5′ cyclic monophosphate in biological fluids”. J Immunol Methods 1992, 155:31-40].
The protein precipitate or “pellets” are digested directly by the addition of 0.5 mL of a 0.1 M sodium hydroxide solution, under constant agitation in a shaker type “rotator” (speed 7), for 30 minutes. Posteriorly, this protein fraction is used in the tests to determine proteins, employing a method developed by BRADFORD (1976). [M. M. BRADFORD, “A rapid and sensitive method for the quantitation of microgram quantities of protein utilizing the principle of protein-dye binding”. Analytical Biochemistry, 1976, 72:248-254].

[2] = Determination of absolute bioavailability in Beagle dogs (oral vs intravenous, plasma LC-MS/MS); assay type: in vivo; details: dog, male Beagle dogs, oral powder in capsules 3 mg/kg vs intravenous bolus 1, 3 and 10 mg/kg
Text: Protocol for Determination of Absolute Bioavailability
The study used male Beagle dogs, aged between 2 to 4 years old, weighing between 8 to 12 kg, and kept in food control and disposal of water ad libitum during the study.
The dogs were shaving in the radial portion of the front paws, performing aseptic on site with the aid of moistened gauze with 70% alcohol.
Entered the 21G catheter (one in each paw in the intravenous administration protocol and a single paw in the oral administration protocol) in order to access the cephalic vein.
The blood samples were collected from animals depending on the established sampling times by taking 1.5 mL of blood using a 3 mL syringe. The samples were transferred to heparinized tube collection.
c) Route of Administration
The administration of the study compounds was made orally and intravenously.
The intravenous administration of the compounds was carried out in bolus, and has through one of the cephalic veins of dogs. Concentrations were administered 1 mg/kg; 3 mg/kg and 10 mg/kg in one, on different days.
The oral administration of the drug was provided as a powder in capsules at the dose of 3 mg/kg, which were all completely ingested by dogs.
For the intravenous administration, the blood samples (1.5 ml) were collected in the following predetermined time intervals: 0, 0.033, 0.083, 0.17, 0.25, 0.33, 0 5; 1; 2; 3; 4; 6; 8; 12 and 24 hours.
For the oral administration, the blood samples (1.5 ml) were collected in the following predetermined time intervals: 0, 0.33, 0.67, 1, 1.5, 2, 3, 4, and 6, 8, 12 and 24 hours.
The compounds tested are II, IV, VI, and XI; described in TABLE 1.
The heparinized tubes collections were placed in a centrifuge and were processed for 10 minutes at 2500 rpm per minute. The plasma was separated and put into other tubes. The plasma was analyzed by Liquid chromatography-tandem mass spectrometry (LC-MS/MS).

| SMILES | melting point | inhibition at 50 µM ([1]; cGMP accumulation in T84 cells) | cGMP, pmol/10 min/mg [1] | % of inhibition (Compound x STa) ([1]; test compound 50 μM vs STa (1 μM) group, cGMP accumulation in T84 cells) | bioavailability [2] |
| --- | --- | --- | --- | --- | --- |
| Cn1c2c(c(=O)n(C)c1=O)C(c1csc(C(F)(F)F)c1)C1=C(N2)c2ccccc2C1=O (stereo not shown) [Compound I] | 265 °C | ~62% | 210.70 ± 6.11 pmol/10 min/mg |  |  |
| Cn1c2c(c(=O)n(C)c1=O)C(c1ccc3c(c1)OCO3)C1=C(N2)c2ccccc2C1=O (stereo not shown) [Compound IX, 5-(1,3-benzodioxol-5-yl)-1,3-dimethyl-5,11-dihydro-1H-indeno-[2′,1′:5,6]pyrido[2,3-d]pyrimidine-2,4,6-trione] |  |  | 703.50 ± 43.11 pmol/10 min/mg |  |  |
| Cn1c2c(c(=O)n(C)c1=S)C(c1ccc3nsnc3c1)C1=C(N2)c2ccccc2C1=O (stereo not shown) [Compound XII, 5-(2,1,3-benzothiadiazol-5-yl)-1,3-dimethyl-5,11-dihydro-1H-indeno-[2′,1′:5,6]pyrido[2,3-d]pyrimidine-2-thioxo-4,6-dione] | 362 °C | ~64% | 201.50 ± 23.51 pmol/10 min/mg |  |  |
| Cn1c2c(c(=O)n(C)c1=S)C(c1cc(F)cc(C(F)(F)F)c1)C1=C(N2)c2ccccc2C1=O (stereo not shown) [Compound III, 5-(3-fluoro-5-trifluoromethylphenyl)-1,3-dimethyl-5,11-dihydro-1H-indeno-[2′,1′:5,6]pyrido[2,3-d]pyrimidine-2-thioxo-4,6-dione] | 313 °C | ~64% | 201.50 ± 44.93 pmol/10 min/mg |  |  |
| Cn1c2c(c(=O)n(C)c1=O)C(c1cc(C(F)(F)F)cc(C(F)(F)F)c1)C1=C(N2)c2ccccc2C1=O (stereo not shown) [FPIPP, reference compound] |  | ~94% | 53.53 ± 6.22 pmol/10 min/mg and 74.83 ± 13.26 pmol/10 min/mg and 56.25 ± 13.61 pmol/10 min/mg and 81.00 ± 14.38 pmol/10 min/mg | ~86% and ~83% and ~87% |  |
| Cn1c2c(c(=O)n(C)c1=O)C(c1cccc3c1OCO3)C1=C(N2)c2ccccc2C1=O (stereo not shown) [Compound VII, 5-(1,3-benzodioxol-4-yl)-1,3-dimethyl-5,11-dihydro-1H-indeno-[2′,1′:5,6]pyrido[2,3-d]pyrimidine-2,4,6-trione] |  | ~12% | 297.30 ± 39.06 pmol/10 min/mg |  |  |
| Cn1c2c(c(=O)n(C)c1=O)C(c1ccc3nsnc3c1)C1=C(N2)c2ccccc2C1=O (stereo not shown) [Compound XI, 5-(2,1,3-benzothiadiazol-5-yl)-1,3-dimethyl-5,11-dihydro-1H-indeno-[2′,1′:5,6]pyrido[2,3-d]pyrimidine-2,4,6-trione] |  | ~70% | 171.30 ± 31.68 pmol/10 min/mg |  | 0.35% |
| Cn1c2c(c(=O)n(C)c1=O)C(c1cccc3nsnc13)C1=C(N2)c2ccccc2C1=O (stereo not shown) [Compound X, 5-(2,1,3-benzothiadiazol-4-yl)-1,3-dimethyl-5,11-dihydro-1H-indeno-[2′,1′:5,6]pyrido[2,3-d]pyrimidine-2,4,6-trione] |  | ~36% | 668.40 ± 75.46 pmol/10 min/mg |  |  |
| CCn1c2c(c(=O)n(C)c1=O)C(c1cc(C(F)(F)F)cc(C(F)(F)F)c1)C1=C(N2)c2ccccc2C1=O (stereo not shown) [Compound VI, 5-(3,5-bistrifluoromethylphenyl)-1-ethyl-3-methyl-5,11-dihydro-1H-indeno-[2′,1′:5,6]pyrido[2,3-d]pyrimidine-2,4,6-trione] | 166 °C | ~97% | 22.83 ± 3.30 pmol/10 min/mg |  | 0.82% |
| CCn1c2c(c(=O)n(C)c1=O)C(c1cc(F)cc(C(F)(F)F)c1)C1=C(N2)c2ccccc2C1=O (stereo not shown) [Compound IV, 5-(3-fluoro-5-trifluoromethylphenyl)-1-ethyl-3-methyl-5,11-dihydro-1H-indeno-[2′,1′:5,6]pyrido[2,3-d]pyrimidine-2,4,6-trione] | 177 °C | ~86% | 146.80 ± 22.94 pmol/10 min/mg |  | 0.17% |
| Cn1c2c(c(=O)n(C)c1=S)C(c1cc(C(F)(F)F)cc(C(F)(F)F)c1)C1=C(N2)c2ccccc2C1=O (stereo not shown) [Compound V, 5-(3,5-bistrifluoromethylphenyl)-1,3-dimethyl-5,11-dihydro-1H-indeno-[2′,1′:5,6]pyrido[2,3-d]pyrimidine-2-thioxo-4,6-dione] | 314 °C | ~62% |  |  |  |
| Cn1c2c(c(=O)n(C)c1=S)C(c1csc(C(F)(F)F)c1)C1=C(N2)c2ccccc2C1=O (stereo not shown) [Compound II] | 178 °C | ~94% | 57.50 ± 3.16 pmol/10 min/mg |  | 0.16% |
| Cn1c2c(c(=O)n(C)c1=S)C(c1cccc3c1OCO3)C1=C(N2)c2ccccc2C1=O (stereo not shown) [Compound VIII, 5-(1,3-benzodioxol-4-yl)-1,3-dimethyl-5,11-dihydro-1H-indeno-[2′,1′:5,6]pyrido[2,3-d]pyrimidine-2-thioxo-4,6-dione] | 310 °C | ~66% | 350.70 ± 35.80 pmol/10 min/mg |  |  |
